Laboratory results as given in patent publication US9611267B2, “Substituted tricyclic compounds as FGFR inhibitors” (Incyte Corporation, priority 2012, dated 2017).
Like-named read-outs stand apart in the source and are kept apart here.

Key:
Assay type in all cases: biochemical
FGFR1 = FGFR1 (Homo sapiens (Human), UniProt P11362); experiment: FGFR enzymatic assay (FRET peptide phosphorylation), FGFR1
How it was run: (§1)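 IC50 values were obtained from variable-slope sigmoidal dose-response fitting of a FRET read-out of peptide phosphorylation. The buffer, described for FGFR3, was 50 mM HEPES pH 7.5 with MgCl2, EGTA, Tween-20 and DTT.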

FGFR3 = FGFR3 (Homo sapiens (Human), UniProt P22607); experiment: FGFR enzymatic assay (FRET peptide phosphorylation), FGFR3
How it was run: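 After 5-10 min pre-incubation of FGFR3 with serially diluted compound in pH 7.5 HEPES/MgCl2/EGTA/DTT buffer, the reaction proceeded 1 hr at 25° C. Phosphorylated peptide was detected by FRET, and IC50 was fitted with a variable-slope sigmoid.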

FGFR2 = FGFR2 (Homo sapiens (Human), UniProt P21802); experiment: FGFR enzymatic assay (FRET peptide phosphorylation), FGFR2
How it was run: as §1

[1] = FGFR1 enzyme 0.02 nM, ATP 210 μM
[2] = FGFR3 enzyme (Millipore), ATP 140 μM
[3] = FGFR2 enzyme 0.01 nM, ATP 100 μM

Measured: IC50

FGFR2, sequence (P21802 22-821): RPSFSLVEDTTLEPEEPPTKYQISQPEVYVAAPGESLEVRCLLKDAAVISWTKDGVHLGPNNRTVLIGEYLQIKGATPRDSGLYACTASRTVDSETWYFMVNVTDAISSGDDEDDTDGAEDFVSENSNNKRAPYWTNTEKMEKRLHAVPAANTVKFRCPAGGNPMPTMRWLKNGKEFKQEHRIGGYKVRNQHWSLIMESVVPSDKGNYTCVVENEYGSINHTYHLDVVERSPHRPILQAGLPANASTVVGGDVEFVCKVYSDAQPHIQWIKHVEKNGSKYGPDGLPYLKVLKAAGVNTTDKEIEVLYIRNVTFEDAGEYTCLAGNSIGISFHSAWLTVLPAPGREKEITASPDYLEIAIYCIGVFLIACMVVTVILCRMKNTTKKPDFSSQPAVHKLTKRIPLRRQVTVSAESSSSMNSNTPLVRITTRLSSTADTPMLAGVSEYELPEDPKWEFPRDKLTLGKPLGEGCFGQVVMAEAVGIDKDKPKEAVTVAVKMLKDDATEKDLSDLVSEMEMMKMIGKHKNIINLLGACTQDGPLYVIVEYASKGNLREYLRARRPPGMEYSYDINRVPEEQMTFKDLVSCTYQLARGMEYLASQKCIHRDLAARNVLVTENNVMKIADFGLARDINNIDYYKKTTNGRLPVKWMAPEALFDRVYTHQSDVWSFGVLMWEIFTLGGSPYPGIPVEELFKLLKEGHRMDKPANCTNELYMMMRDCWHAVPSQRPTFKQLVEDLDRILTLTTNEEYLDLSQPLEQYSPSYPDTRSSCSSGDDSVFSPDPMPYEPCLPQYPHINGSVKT
FGFR1, sequence (P11362 22-822): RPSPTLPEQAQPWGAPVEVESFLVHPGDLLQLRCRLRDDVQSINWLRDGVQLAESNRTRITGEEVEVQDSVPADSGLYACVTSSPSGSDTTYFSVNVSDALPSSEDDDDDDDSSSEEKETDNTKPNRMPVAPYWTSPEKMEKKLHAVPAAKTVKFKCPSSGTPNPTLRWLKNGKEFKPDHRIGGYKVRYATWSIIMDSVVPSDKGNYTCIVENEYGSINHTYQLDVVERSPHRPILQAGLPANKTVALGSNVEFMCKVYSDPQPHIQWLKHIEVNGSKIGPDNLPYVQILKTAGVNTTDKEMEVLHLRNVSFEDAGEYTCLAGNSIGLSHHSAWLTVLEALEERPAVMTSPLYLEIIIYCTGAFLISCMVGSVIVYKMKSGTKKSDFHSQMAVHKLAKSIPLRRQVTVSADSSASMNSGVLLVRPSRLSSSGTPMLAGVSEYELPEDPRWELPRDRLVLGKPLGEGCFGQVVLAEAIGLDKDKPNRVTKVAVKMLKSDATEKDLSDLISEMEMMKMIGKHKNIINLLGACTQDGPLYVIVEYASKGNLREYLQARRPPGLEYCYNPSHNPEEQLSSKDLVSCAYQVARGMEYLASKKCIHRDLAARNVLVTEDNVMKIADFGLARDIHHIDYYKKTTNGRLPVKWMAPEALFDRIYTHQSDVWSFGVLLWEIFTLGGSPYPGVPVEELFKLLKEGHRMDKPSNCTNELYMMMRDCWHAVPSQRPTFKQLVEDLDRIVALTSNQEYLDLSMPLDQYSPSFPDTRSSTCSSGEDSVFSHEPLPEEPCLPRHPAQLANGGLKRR
FGFR3, sequence (P22607 23-806): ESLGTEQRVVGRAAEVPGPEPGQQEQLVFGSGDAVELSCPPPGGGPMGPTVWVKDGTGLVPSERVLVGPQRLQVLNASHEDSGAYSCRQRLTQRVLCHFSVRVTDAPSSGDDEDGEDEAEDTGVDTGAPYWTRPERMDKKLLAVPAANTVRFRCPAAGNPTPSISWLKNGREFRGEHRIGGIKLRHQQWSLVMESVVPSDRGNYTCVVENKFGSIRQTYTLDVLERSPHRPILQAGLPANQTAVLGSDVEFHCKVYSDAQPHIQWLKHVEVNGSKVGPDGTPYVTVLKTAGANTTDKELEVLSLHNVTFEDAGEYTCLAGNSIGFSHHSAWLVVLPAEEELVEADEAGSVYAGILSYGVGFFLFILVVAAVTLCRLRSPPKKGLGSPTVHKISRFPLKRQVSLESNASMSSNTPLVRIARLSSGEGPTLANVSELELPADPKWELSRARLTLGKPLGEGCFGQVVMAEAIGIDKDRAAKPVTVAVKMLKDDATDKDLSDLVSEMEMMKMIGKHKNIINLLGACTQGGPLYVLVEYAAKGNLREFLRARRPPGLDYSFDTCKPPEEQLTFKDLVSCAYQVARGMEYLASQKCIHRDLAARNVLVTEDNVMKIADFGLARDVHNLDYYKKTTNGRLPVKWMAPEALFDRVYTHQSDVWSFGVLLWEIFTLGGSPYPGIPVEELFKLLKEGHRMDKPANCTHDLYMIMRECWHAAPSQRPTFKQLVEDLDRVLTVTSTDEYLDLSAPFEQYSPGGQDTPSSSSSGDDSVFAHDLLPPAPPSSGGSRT

COc1cc(OC)c(F)c(N2Cc3cnc4[nH]ccc4c3C3(CCOCC3)C2=O)c1F [Example 150, 7′-(2,6-difluoro-3,5-dimethoxyphenyl)-2,3,5,6,6′,7′-hexahydrospiro[pyran-4,9′-pyrrolo[2,3-c][2,7]naphthyridin]-8′(3′H)-one]
< 100 nM: FGFR1; [1] | FGFR3; [2] | FGFR2; [3]

COc1cc(OC)c(F)c(N2Cc3cnc4[nH]ccc4c3C3(CCN(C)CC3)C2=O)c1F [Example 151, 7′-(2,6-difluoro-3,5-dimethoxyphenyl)-1-methyl-6′,7′-dihydrospiro[piperidine-4,9′-pyrrolo[2,3-c][2,7]naphthyridin]-8′(3′H)-one]
< 100 nM: FGFR1 | FGFR3 | FGFR2

COc1cc(OC)c(F)c(N2Cc3cnc4[nH]c(CN5CCOCC5)cc4c3C(C)(C)C2=O)c1F [Example 152, 7-(2,6-difluoro-3,5-dimethoxyphenyl)-9,9-dimethyl-2-(morpholin-4-ylmethyl)-3,6,7,9-tetrahydro-8H-pyrrolo[2,3-c]-2,7-naphthyridin-8-one]
< 100 nM: FGFR1; [1] | FGFR3; [2] | FGFR2; [3]

COc1cc(OC)c(F)c(N2Cc3cnc4[nH]c(CN5CCN(C)CC5)cc4c3C(C)(C)C2=O)c1F [Example 153, 7-(2,6-difluoro-3,5-dimethoxyphenyl)-9,9-dimethyl-2-[(4-methylpiperazin-1-yl)methyl]-3,6,7,9-tetrahydro-8H-pyrrolo[2,3-c]-2,7-naphthyridin-8-one]
< 100 nM: FGFR1; [1] | FGFR3; [2] | FGFR2; [3]

CCN1CCN(Cc2cc3c4c(cnc3[nH]2)CN(c2c(F)c(OC)cc(OC)c2F)C(=O)C4(C)C)CC1 [Example 154, 7-(2,6-difluoro-3,5-dimethoxyphenyl)-2-[(4-ethylpiperazin-1-yl)methyl]-9,9-dimethyl-3,6,7,9-tetrahydro-8H-pyrrolo[2,3-c]-2,7-naphthyridin-8-one]
< 100 nM: FGFR1; [1] | FGFR3; [2] | FGFR2; [3]

COc1cc(OC)c(F)c(N2Cc3cnc4[nH]c(CN5CCC(C#N)CC5)cc4c3C(C)(C)C2=O)c1F [Example 155, 1-{[7-(2,6-difluoro-3,5-dimethoxyphenyl)-9,9-dimethyl-8-oxo-6,7,8,9-tetrahydro-3H-pyrrolo[2,3-c]-2,7-naphthyridin-2-yl]methyl}piperidine-4-carbonitrile]
< 100 nM: FGFR1; [1] | FGFR3; [2] | FGFR2; [3]

COc1cc(OC)c(F)c(N2Cc3cnc4[nH]c(CN5CC[C@H](N(C)C)C5)cc4c3C(C)(C)C2=O)c1F [Example 156, 7-(2,6-difluoro-3,5-dimethoxyphenyl)-2-{[(3S)-3-(dimethylamino)pyrrolidin-1-yl]methyl}-9,9-dimethyl-3,6,7,9-tetrahydro-8H-pyrrolo[2,3-c]-2,7-naphthyridin-8-one]
< 100 nM: FGFR1; [1] | FGFR3; [2] | FGFR2; [3]

COc1cc(OC)c(F)c(N2Cc3cnc4[nH]c(CN5CC[C@@H](N(C)C)C5)cc4c3C(C)(C)C2=O)c1F [Example 157, 7-(2,6-difluoro-3,5-dimethoxyphenyl)-2-{[(3R)-3-(dimethylamino)pyrrolidin-1-yl]methyl}-9,9-dimethyl-3,6,7,9-tetrahydro-8H-pyrrolo[2,3-c]-2,7-naphthyridin-8-one]
< 100 nM: FGFR1; [1] | FGFR3; [2] | FGFR2; [3]

COc1cc(OC)c(F)c(N2Cc3cnc4[nH]c(CCN5CCOCC5)cc4c3C(C)(C)C2=O)c1F [Example 158, 7-(2,6-difluoro-3,5-dimethoxyphenyl)-9,9-dimethyl-2-(2-morpholin-4-ylethyl)-3,6,7,9-tetrahydro-8H-pyrrolo[2,3-c]-2,7-naphthyridin-8-one]
< 100 nM: FGFR1; [1] | FGFR3; [2] | FGFR2; [3]

CCN1CCN(CCc2cc3c4c(cnc3[nH]2)CN(c2c(F)c(OC)cc(OC)c2F)C(=O)C4(C)C)CC1 [Example 159, 7-(2,6-difluoro-3,5-dimethoxyphenyl)-2-[2-(4-ethylpiperazin-1-yl)ethyl]-9,9-dimethyl-3,6,7,9-tetrahydro-8H-pyrrolo[2,3-c]-2,7-naphthyridin-8-one]
< 100 nM: FGFR1; [1] | FGFR3; [2] | FGFR2; [3]

COc1cc(OC)c(F)c(N2Cc3cnc4[nH]c(CCN5CCN(C)CC5)cc4c3C(C)(C)C2=O)c1F [Example 160, 7-(2,6-difluoro-3,5-dimethoxyphenyl)-9,9-dimethyl-2-[2-(4-methylpiperazin-1-yl)ethyl]-3,6,7,9-tetrahydro-8H-pyrrolo[2,3-c]-2,7-naphthyridin-8-one]
< 100 nM: FGFR1; [1] | FGFR3; [2] | FGFR2; [3]

COc1cc(OC)c(F)c(N2Cc3cnc4[nH]ncc4c3N(Cc3cocn3)C2=O)c1F [Example 161, 3-(2,6-Difluoro-3,5-dimethoxyphenyl)-1-(1,3-oxazol-4-ylmethyl)-1,3,4,7-tetrahydro-2H-pyrazolo[4′,3′:5,6]pyrido[4,3-d]pyrimidin-2-one]
< 100 nM: FGFR1; [1] | FGFR3; [2] | FGFR2; [3]

COc1cc(OC)c(F)c(N2Cc3cnc4[nH]ncc4c3N(Cc3ccon3)C2=O)c1F [Example 162, 3-(2,6-Difluoro-3,5-dimethoxyphenyl)-1-(isoxazol-3-ylmethyl)-1,3,4,7-tetrahydro-2H-pyrazolo[4′,3′:5,6]pyrido[4,3-d]pyrimidin-2-one]
< 100 nM: FGFR1; [1] | FGFR3; [2] | FGFR2; [3]

COc1cc(OC)c(F)c(N2Cc3cnc4[nH]ncc4c3N(Cc3cscn3)C2=O)c1F [Example 163, 3-(2,6-Difluoro-3,5-dimethoxyphenyl)-1-(1,3-thiazol-4-ylmethyl)-1,3,4,7-tetrahydro-2H-pyrazolo[4′,3′:5,6]pyrido[4,3-d]pyrimidin-2-one]
< 100 nM: FGFR1; [1] | FGFR3; [2] | FGFR2; [3]

COc1cc(OC)c(F)c(N2Cc3cnc4[nH]ncc4c3N(c3ccccc3OC(F)F)C2=O)c1F [Example 164, 3-(2,6-Difluoro-3,5-dimethoxyphenyl)-1-[2-(difluoromethoxy)phenyl]-1,3,4,7-tetrahydro-2H-pyrazolo[4′,3′:5,6]pyrido[4,3-d]pyrimidin-2-one]
< 100 nM: FGFR1; [1] | FGFR3; [2] | FGFR2; [3]

COc1cc(OC)c(F)c(N2Cc3cnc4[nH]ncc4c3N(CCn3cccn3)C2=O)c1F [Example 165, 3-(2,6-Difluoro-3,5-dimethoxyphenyl)-1-[2-(1H-pyrazol-1-yl)ethyl]-1,3,4,7-tetrahydro-2H-pyrazolo[4′,3′:5,6]pyrido[4,3-d]pyrimidin-2-one]
< 100 nM: FGFR1; [1] | FGFR3; [2] | FGFR2; [3]

COc1cc(OC)c(F)c(N2Cc3cnc4[nH]ncc4c3N(C[C@H]3CCCO3)C2=O)c1F [Example 166, 3-(2,6-Difluoro-3,5-dimethoxyphenyl)-1-[(2R)-tetrahydrofuran-2-ylmethyl]-1,3,4,7-tetrahydro-2H-pyrazolo[4′,3′:5,6]pyrido[4,3-d]pyrimidin-2-one]
< 100 nM: FGFR1; [1] | FGFR3; [2] | FGFR2; [3]

COc1cc(OC)c(F)c(N2Cc3cnc4[nH]ncc4c3N(C[C@@H]3CCCO3)C2=O)c1F [Example 167, 3-(2,6-Difluoro-3,5-dimethoxyphenyl)-1-[(2S)-tetrahydrofuran-2-ylmethyl]-1,3,4,7-tetrahydro-2H-pyrazolo[4′,3′:5,6]pyrido[4,3-d]pyrimidin-2-one]
< 100 nM: FGFR1; [1] | FGFR3; [2] | FGFR2; [3]

COc1cc(OC)c(F)c(N2Cc3cnc4[nH]ncc4c3N(CCc3cnccn3)C2=O)c1F [Example 168, 3-(2,6-Difluoro-3,5-dimethoxyphenyl)-1-(2-pyrazin-2-ylethyl)-1,3,4,7-tetrahydro-2H-pyrazolo[4′,3′:5,6]pyrido[4,3-d]pyrimidin-2-one]
< 100 nM: FGFR1; [1] | FGFR3; [2] | FGFR2; [3]

COc1cc(OC)c(F)c(N2Cc3cnc4[nH]ncc4c3N(CCc3ccccn3)C2=O)c1F [Example 169, 3-(2,6-Difluoro-3,5-dimethoxyphenyl)-1-(2-pyridin-2-ylethyl)-1,3,4,7-tetrahydro-2H-pyrazolo[4′,3′:5,6]pyrido[4,3-d]pyrimidin-2-one]
< 100 nM: FGFR1; [1] | FGFR3; [2] | FGFR2; [3]

COc1cc(OC)c(F)c(N2Cc3cnc4[nH]ncc4c3N(CCc3cccnc3)C2=O)c1F [Example 170, 3-(2,6-Difluoro-3,5-dimethoxyphenyl)-1-(2-pyridin-3-ylethyl)-1,3,4,7-tetrahydro-2H-pyrazolo[4′,3′:5,6]pyrido[4,3-d]pyrimidin-2-one]
< 100 nM: FGFR1; [1] | FGFR3; [2] | FGFR2; [3]

COc1cc(OC)c(F)c(N2Cc3cnc4[nH]ncc4c3N(CCc3ccncc3)C2=O)c1F [Example 171, 3-(2,6-Difluoro-3,5-dimethoxyphenyl)-1-(2-pyridin-4-ylethyl)-1,3,4,7-tetrahydro-2H-pyrazolo[4′,3′:5,6]pyrido[4,3-d]pyrimidin-2-one]
< 100 nM: FGFR1; [1] | FGFR3; [2] | FGFR2; [3]
